Results published in the NIST ThermoML archive (doi:10.1016/j.jct.2016.08.001).
± gives the expanded uncertainty stated by the source.

Experiments:
[1] = refractive index (Na D-line) (dimensionless); xn = mol fraction of the nth substance listed; settings: 100 kPa, Liquid, Standard Abbe refractometry
[2] = xn = mol fraction of the nth substance listed; settings: 100 kPa, Liquid; for speed of sound: Frequency=3 MHz, Sing-around technique in a fixed-path interferometer; for mass density: Vibrating tube method

N#Cc1ccccc1 [benzonitrile] + CCOC(=O)OCC
refractive index ([1]; 298.15 K, x2 = 0): 1.526 ± 0.0016 | refractive index ([1]; 298.15 K, x2 = 0.0854): 1.5123 ± 0.0016 | refractive index ([1]; 298.15 K, x2 = 0.1886): 1.4963 ± 0.0016 | refractive index ([1]; 298.15 K, x2 = 0.2618): 1.4851 ± 0.0016 | refractive index ([1]; 298.15 K, x2 = 0.3642): 1.4698 ± 0.0016 | refractive index ([1]; 298.15 K, x2 = 0.462): 1.4556 ± 0.0016 | refractive index ([1]; 298.15 K, x2 = 0.5563): 1.442 ± 0.0016 | refractive index ([1]; 298.15 K, x2 = 0.6599): 1.4275 ± 0.0016 | refractive index ([1]; 298.15 K, x2 = 0.7732): 1.412 ± 0.0016 | refractive index ([1]; 298.15 K, x2 = 0.8703): 1.3991 ± 0.0016 | refractive index ([1]; 303.15 K, x2 = 0): 1.5235 ± 0.0016 | refractive index ([1]; 303.15 K, x2 = 0.0854): 1.5098 ± 0.0016 | refractive index ([1]; 303.15 K, x2 = 0.1886): 1.494 ± 0.0016 | refractive index ([1]; 303.15 K, x2 = 0.2618): 1.4828 ± 0.0016 | refractive index ([1]; 303.15 K, x2 = 0.3642): 1.4676 ± 0.0016 | refractive index ([1]; 303.15 K, x2 = 0.462): 1.4533 ± 0.0016 | refractive index ([1]; 303.15 K, x2 = 0.5563): 1.4398 ± 0.0016 | refractive index ([1]; 303.15 K, x2 = 0.6599): 1.4253 ± 0.0016 | refractive index ([1]; 303.15 K, x2 = 0.7732): 1.4098 ± 0.0016 | refractive index ([1]; 303.15 K, x2 = 0.8703): 1.3969 ± 0.0016 | refractive index ([1]; 308.15 K, x2 = 0): 1.5209 ± 0.0016 | refractive index ([1]; 308.15 K, x2 = 0.0854): 1.5074 ± 0.0016 | refractive index ([1]; 308.15 K, x2 = 0.1886): 1.4916 ± 0.0016 | refractive index ([1]; 308.15 K, x2 = 0.2618): 1.4806 ± 0.0016 | refractive index ([1]; 308.15 K, x2 = 0.3642): 1.4653 ± 0.0016 | refractive index ([1]; 308.15 K, x2 = 0.462): 1.4511 ± 0.0016 | refractive index ([1]; 308.15 K, x2 = 0.5563): 1.4376 ± 0.0016 | refractive index ([1]; 308.15 K, x2 = 0.6599): 1.4231 ± 0.0016 | refractive index ([1]; 308.15 K, x2 = 0.7732): 1.4076 ± 0.0016 | refractive index ([1]; 308.15 K, x2 = 0.8703): 1.3946 ± 0.0016 | refractive index ([1]; 313.15 K, x2 = 0): 1.5184 ± 0.0016 | refractive index ([1]; 313.15 K, x2 = 0.0854): 1.505 ± 0.0016 | refractive index ([1]; 313.15 K, x2 = 0.1886): 1.4893 ± 0.0016 | refractive index ([1]; 313.15 K, x2 = 0.2618): 1.4783 ± 0.0016 | refractive index ([1]; 313.15 K, x2 = 0.3642): 1.4631 ± 0.0016 | refractive index ([1]; 313.15 K, x2 = 0.462): 1.4489 ± 0.0016 | refractive index ([1]; 313.15 K, x2 = 0.5563): 1.4353 ± 0.0016 | refractive index ([1]; 313.15 K, x2 = 0.6599): 1.4208 ± 0.0016 | refractive index ([1]; 313.15 K, x2 = 0.7732): 1.4054 ± 0.0016 | refractive index ([1]; 313.15 K, x2 = 0.8703): 1.3924 ± 0.0016 | refractive index ([1]; 318.15 K, x2 = 0): 1.5158 ± 0.0016 | refractive index ([1]; 318.15 K, x2 = 0.0854): 1.5025 ± 0.0016 | refractive index ([1]; 318.15 K, x2 = 0.1886): 1.487 ± 0.0016 | refractive index ([1]; 318.15 K, x2 = 0.2618): 1.4761 ± 0.0016 | refractive index ([1]; 318.15 K, x2 = 0.3642): 1.4609 ± 0.0016 | refractive index ([1]; 318.15 K, x2 = 0.462): 1.4466 ± 0.0016 | refractive index ([1]; 318.15 K, x2 = 0.5563): 1.4332 ± 0.0016 | refractive index ([1]; 318.15 K, x2 = 0.6599): 1.4187 ± 0.0016 | refractive index ([1]; 318.15 K, x2 = 0.7732): 1.4032 ± 0.0016 | refractive index ([1]; 318.15 K, x2 = 0.8703): 1.3902 ± 0.0016 | refractive index ([1]; 323.15 K, x2 = 0): 1.5133 ± 0.0016 | refractive index ([1]; 323.15 K, x2 = 0.0854): 1.5002 ± 0.0016 | refractive index ([1]; 323.15 K, x2 = 0.1886): 1.4848 ± 0.0016 | refractive index ([1]; 323.15 K, x2 = 0.2618): 1.4739 ± 0.0016 | refractive index ([1]; 323.15 K, x2 = 0.3642): 1.4587 ± 0.0016 | refractive index ([1]; 323.15 K, x2 = 0.462): 1.4445 ± 0.0016 | refractive index ([1]; 323.15 K, x2 = 0.5563): 1.431 ± 0.0016 | refractive index ([1]; 323.15 K, x2 = 0.6599): 1.4165 ± 0.0016 | refractive index ([1]; 323.15 K, x2 = 0.7732): 1.401 ± 0.0016 | refractive index ([1]; 323.15 K, x2 = 0.8703): 1.3881 ± 0.0016 | speed of sound ([2]; 298.15 K, x2 = 0): 1415.6 ± 1.5 m/s | speed of sound ([2]; 298.15 K, x2 = 0.0854): 1396.3 ± 1.5 m/s | speed of sound ([2]; 298.15 K, x2 = 0.1886): 1373.1 ± 1.5 m/s | speed of sound ([2]; 298.15 K, x2 = 0.2618): 1356.1 ± 1.5 m/s | speed of sound ([2]; 298.15 K, x2 = 0.3642): 1331.9 ± 1.5 m/s | speed of sound ([2]; 298.15 K, x2 = 0.462): 1308.6 ± 1.5 m/s | speed of sound ([2]; 298.15 K, x2 = 0.5563): 1286.1 ± 1.5 m/s | speed of sound ([2]; 298.15 K, x2 = 0.6599): 1261 ± 1.5 m/s | speed of sound ([2]; 298.15 K, x2 = 0.7732): 1233.3 ± 1.5 m/s | speed of sound ([2]; 298.15 K, x2 = 0.8703): 1209.4 ± 1.6 m/s | mass density ([2]; 298.15 K, x2 = 0): 1000.6 ± 1 kg/m3 | mass density ([2]; 298.15 K, x2 = 0.0854): 998.8 ± 1 kg/m3 | mass density ([2]; 298.15 K, x2 = 0.1886): 996.7 ± 1 kg/m3 | mass density ([2]; 298.15 K, x2 = 0.2618): 994.9 ± 1 kg/m3 | mass density ([2]; 298.15 K, x2 = 0.3642): 992.1 ± 1 kg/m3 | mass density ([2]; 298.15 K, x2 = 0.462): 989.3 ± 1 kg/m3 | mass density ([2]; 298.15 K, x2 = 0.5563): 986.3 ± 1 kg/m3 | mass density ([2]; 298.15 K, x2 = 0.6599): 982.7 ± 1 kg/m3 | mass density ([2]; 298.15 K, x2 = 0.7732): 978.5 ± 1 kg/m3 | mass density ([2]; 298.15 K, x2 = 0.8703): 974.6 ± 1 kg/m3 | speed of sound ([2]; 303.15 K, x2 = 0): 1398.1 ± 1.5 m/s | speed of sound ([2]; 303.15 K, x2 = 0.0854): 1378.5 ± 1.5 m/s | speed of sound ([2]; 303.15 K, x2 = 0.1886): 1354.8 ± 1.5 m/s | speed of sound ([2]; 303.15 K, x2 = 0.2618): 1337.7 ± 1.5 m/s | speed of sound ([2]; 303.15 K, x2 = 0.3642): 1313.1 ± 1.5 m/s | speed of sound ([2]; 303.15 K, x2 = 0.462): 1289.5 ± 1.5 m/s | speed of sound ([2]; 303.15 K, x2 = 0.5563): 1266.7 ± 1.5 m/s | speed of sound ([2]; 303.15 K, x2 = 0.6599): 1241.3 ± 1.5 m/s | speed of sound ([2]; 303.15 K, x2 = 0.7732): 1213.3 ± 1.5 m/s | speed of sound ([2]; 303.15 K, x2 = 0.8703): 1189.2 ± 1.5 m/s
